Measurements reported in patent publication US9708302B2, “Flouro-naphthyl derivatives” (Hoffmann-La Roche Inc., priority 2014, dated 2017).
pEC50: −log10 of the molar value.

Key:
hM1 = hM1 (Homo sapiens (Human), UniProt P11229); experiment: M1 PAM Assay (FLIPR intracellular calcium, CHO human M1 cells); assay type: cell-based; conditions: positive allosteric modulation in presence of EC20 of acetylcholine, first value of cell
Description: (§1) The assay study the effect of several concentrations of test compounds on basal or acetylcholine-stimulated Ca^2+ levels using FLIPR.
(§2) CHO human M1 are plated the day before the experiments at 2×10^5 cells/ml in PDL BioCoat 96 well black/clear plate (Becton 35 4640). The cells are grown at 37° C. and 5% CO2 in the following medium: F12 Nut Mix (Gibco 21765), 10% FCS heat inactivated (GIBCO 16000-044), 1% Pen Strep (Gibco, 15140) and 200 μg/ml Geneticin (Gibco 11811). On the day of the experiment, the medium was removed and replaced by 100 μl of dye loading buffer containing Hanks Balanced Salt solution (HBSS, 14065-049, Gibco) with 20 mM HEPES (Gibco 15630-056), 2 mM Probenicid (Sigma P8761), […] (Molecular Probes F-14202), 10% Pluronic acid Molecular Probes P-3000) pH=7.4 and incubated at 37° C. After 60 minutes extracellular dye was removed and the cells were washed five times with FLIPR buffer containing HBSS (Gibco 14065-049) with 20 mM HEPES (Gibco, 15630-056), 2 mM Probenicid (Sigma P8761) pre-warmed at 37° C. using and Ebml cell washer leaving 100 μl of FLIPR buffer in each well. The cell plate and the diluted compounds (1% DMSO final concentration) are placed on the platform of the FLIPR and the door closed. A signal test to check background fluorescence and basal fluorescence signal is performed. Laser intensity is adjusted if necessary. Two minutes preincubation with the diluted test compounds is provide to determine any agonist activity on the M1 receptor by comparison to 30 nM Acetylcholine control. In order to determine any modulator activity the diluted compounds were added to cells and after two minutes preincubation, the EC20 of acetylcholine is added followed by another two minutes preincubation before the measurement of intracellular Ca^2+ with a FLIPR (Molecular Devices).

rat M1 = rat M1 (Rattus norvegicus (Rat), UniProt P08482); experiment: M1 PAM Assay (FLIPR intracellular calcium), rat M1; assay type: cell-based; conditions: positive allosteric modulation in presence of EC20 of acetylcholine; second value of cell
rat M1, sequence (P08482 whole entry): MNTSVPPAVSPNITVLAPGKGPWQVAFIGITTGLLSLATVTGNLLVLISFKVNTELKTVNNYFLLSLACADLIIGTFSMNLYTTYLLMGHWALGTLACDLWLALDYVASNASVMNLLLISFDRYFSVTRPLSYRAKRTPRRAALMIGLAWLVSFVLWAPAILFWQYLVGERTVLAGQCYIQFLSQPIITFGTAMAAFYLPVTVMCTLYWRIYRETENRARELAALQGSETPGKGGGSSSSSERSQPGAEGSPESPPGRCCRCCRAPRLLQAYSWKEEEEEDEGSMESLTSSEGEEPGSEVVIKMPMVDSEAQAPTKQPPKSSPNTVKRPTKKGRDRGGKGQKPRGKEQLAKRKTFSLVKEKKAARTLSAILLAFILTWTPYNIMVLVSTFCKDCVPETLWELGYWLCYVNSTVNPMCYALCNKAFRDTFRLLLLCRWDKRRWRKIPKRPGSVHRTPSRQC
Description: [The procedure below names another species; the source lists this species under the same test.] as §1, §2

hM1, sequence (P11229 whole entry): as the sequence (P08482 whole entry) above, with V5A, S254T, S309P, K320R, G337A, V413I counted along it

O=C(N[C@H]1CCCC[C@@H]1O)c1cc(Cc2ccc(Cl)nc2)c2ccccc2c1F (racemic) [Example 1, 4-((6-Chloropyridin-3-yl)methyl)-1-fluoro-N-((1SR,2SR)-2-hydroxycyclohexyl)-2-naphthamide]
pEC50 (hM1): 6.80 | pEC50 (rat M1): 6.86

O=C(N[C@H]1CCOC[C@@H]1O)c1cc(Cc2ccc(Cl)nc2)c2ccccc2c1F (racemic) [Example 2, 4-((6-chloropyridin-3-yl)methyl)-1-fluoro-N-((3RS,4SR)-3-hydroxytetrahydro-2H-pyran-4-yl)-2-naphthamide]
pEC50 (hM1): 7.28 | pEC50 (rat M1): 6.93

C[C@]1(O)CCCC[C@@H]1NC(=O)c1cc(Cc2ccc(Cl)nc2)c2ccccc2c1F (racemic) [Example 7, 4-((6-chloropyridin-3-yl)methyl)-1-fluoro-N-((1SR,2SR)-2-hydroxy-2-methylcyclohexyl)-2-naphthamide]
pEC50 (hM1): 6.25

C[C@@]1(O)CCCC[C@@H]1NC(=O)c1cc(Cc2ccc(Cl)nc2)c2ccccc2c1F (racemic) [Example 8, 4-((6-chloropyridin-3-yl)methyl)-1-fluoro-N-((1SR,2RS)-2-hydroxy-2-methylcyclohexyl)-2-naphthamide]
pEC50 (hM1): 6.28

O=C(N[C@H]1CCCC[C@H]1O)c1cc(Cc2ccc(Cl)nc2)c2ccccc2c1F (racemic) [Example 9, 4-((6-chloropyridin-3-yl)methyl)-1-fluoro-N-((1SR,2RS)-2-hydroxycyclohexyl)-2-naphthamide]
pEC50 (hM1): 6.27

Cc1ccc(Cc2cc(C(=O)N[C@H]3CCOC[C@@H]3O)c(F)c3ccccc23)cc1 (racemic) [Example 10, 1-Fluoro-N-((3RS,4SR)-3-hydroxytetrahydro-2H-pyran-4-yl)-4-(4-methylbenzyl)-2-naphthamide]
pEC50 (hM1): 6.81 | pEC50 (rat M1): 6.66

O=C(N[C@H]1CCOC[C@@H]1O)c1cc(Cc2ccccc2)c2ccccc2c1F (racemic) [Example 11, 4-benzyl-1-fluoro-N-((3RS,4SR)-3-hydroxytetrahydro-2H-pyran-4-yl)-2-naphthamide]
pEC50 (hM1): 6.71 | pEC50 (rat M1): 6.45

O=C(N[C@H]1CCOC[C@@H]1O)c1cc(Cc2ccc(Cl)cc2)c2ccccc2c1F (racemic) [Example 12, 4-(4-chlorobenzyl)-1-fluoro-N-((3RS,4SR)-3-hydroxytetrahydro-2H-pyran-4-yl)-2-naphthamide]
pEC50 (hM1): 6.82 | pEC50 (rat M1): 6.56

N#Cc1ccc(Cc2cc(C(=O)N[C@H]3CCOC[C@@H]3O)c(F)c3ccccc23)cc1 (racemic) [Example 13, 4-(4-cyanobenzyl)-1-fluoro-N-((3RS,4SR)-3-hydroxytetrahydro-2H-pyran-4-yl)-2-naphthamide]
pEC50 (hM1): 7.17 | pEC50 (rat M1): 7.15

Cn1cc(-c2ccc(Cc3cc(C(=O)N[C@H]4CCOC[C@@H]4O)c(F)c4ccccc34)c(F)c2)cn1 (racemic) [Example 14, 1-fluoro-4-(2-fluoro-4-(1-methyl-1H-pyrazol-4-yl)benzyl)-N-((3RS,4SR)-3-hydroxytetrahydro-2H-pyran-4-yl)-2-naphthamide]
pEC50 (hM1): 7.85 | pEC50 (rat M1): 7.85

O=C(N[C@H]1CCOC[C@@H]1O)c1cc(Cc2ccc(OC(F)(F)F)cc2)c2ccccc2c1F (racemic) [Example 15, 1-fluoro-N-((3RS,4SR)-3-hydroxytetrahydro-2H-pyran-4-yl)-4-(4-(trifluoromethoxy)benzyl)-2-naphthamide]
pEC50 (hM1): 6.27

Cn1cc(-c2ccc(Cc3cc(C(=O)N[C@H]4CCOC[C@@H]4O)c(F)c4ccccc34)cc2)cn1 (racemic) [Example 16, 1-fluoro-N-((3RS,4SR)-3-hydroxytetrahydro-2H-pyran-4-yl)-4-(4-(1-methyl-1H-pyrazol-4-yl)benzyl)-2-naphthamide]
pEC50 (hM1): 7.96 | pEC50 (rat M1): 7.70

Cn1cc(-c2ccc(Cc3cc(C(=O)N[C@H]4CCCC[C@@H]4O)c(F)c4ccccc34)cn2)cn1 (racemic) [Example 17, 1-Fluoro-N-((1S,2S)-2-hydroxycyclohexyl)-4-((6-(1-methyl-1H-pyrazol-4-yl)pyridin-3-yl)methyl)-2-naphthamide]
pEC50 (hM1): 8.00 | pEC50 (rat M1): 7.85

Cn1cc(-c2ccc(Cc3cc(C(=O)N[C@H]4CCOC[C@@H]4O)c(F)c4ccccc34)cn2)cn1 (racemic) [Example 18, 1-fluoro-N-((3RS,4SR)-3-hydroxytetrahydro-2H-pyran-4-yl)-4-((6-(1-methyl-1H-pyrazol-4-yl)pyridin-3-yl)methyl)-2-naphthamide]
pEC50 (hM1): 8.52 | pEC50 (rat M1): 8.22

Cn1cc(-c2ccc(Cc3cc(C(=O)N[C@H]4CCCC[C@@]4(C)O)c(F)c4ccccc34)cn2)cn1 (racemic) [Example 22, 1-fluoro-N-((1SR,2RS)-2-hydroxy-2-methylcyclohexyl)-4-((6-(1-methyl-1H-pyrazol-4-yl)pyridin-3-yl)methyl)-2-naphthamide]
pEC50 (hM1): 7.70 | pEC50 (rat M1): 7.39

Cc1ccc(Cc2cc(C(=O)N[C@H]3CCCC[C@@H]3O)c(F)c3ccccc23)cn1 (racemic) [Example 23, 1-Fluoro-N-((1SR,2SR)-2-hydroxycyclohexyl)-4-((6-methylpyridin-3-yl)methyl)-2-naphthamide]
pEC50 (hM1): 6.67 | pEC50 (rat M1): 6.31

O=C(N[C@@H]1CCOC[C@H]1O)c1cc(Cc2ccc(Cl)nc2)c2ccccc2c1F (stereo in doubt) [Example 25, 4-[(6-chloropyridin-3-yl)methyl]-1-fluoro-N-[(3S,4R)-3-hydroxyoxan-4-yl]naphthalene-2-carboxamide]
pEC50 (hM1): 7.57 | pEC50 (rat M1): 7.28

O=C(N[C@H]1CCCC[C@@H]1O)c1cc(Cc2ccc(Cl)nc2)c2ccccc2c1F [Example 3, 4-((6-chloropydridin-3-yl)methyl)-1-fluoro-N-((1S,2S)-2-hydroxycyclohexyl)-2-naphthamide]
pEC50 (hM1): 7.08 | pEC50 (rat M1): 7.00

O=C(N[C@H]1COCC[C@@H]1O)c1cc(Cc2ccc(Cl)nc2)c2ccccc2c1F [Example 4, 4-((6-Chloropyridin-3-yl)methyl)-1-fluoro-N-((3S,4S)-4-hydroxytetrahydro-2H-pyran-3-yl)-2-naphthamide]
pEC50 (hM1): 6.37

O=C(N[C@H]1CCC[C@@H]1O)c1cc(Cc2ccc(Cl)nc2)c2ccccc2c1F [Example 5, 4-((6-chloropyridin-3-yl)methyl)-1-fluoro-N-((1S,2S)-2-hydroxycyclopentyl)-2-naphthamide]
pEC50 (hM1): 6.44 | pEC50 (rat M1): 6.01

O=C(N[C@H]1CCC[C@H]1O)c1cc(Cc2ccc(Cl)nc2)c2ccccc2c1F [Example 6, 4-((6-chloropydridin-3-yl)methyl)-1-fluoro-N-((1S,2R)-2-hydroxycyclopentyl)-2-naphthamide]
pEC50 (hM1): 6.24

Cn1cc(-c2ccc(Cc3cc(C(=O)N[C@@H]4CCOC[C@H]4O)c(F)c4ccccc34)cn2)cn1 [Example 19, 1-fluoro-N-[(3S,4R)-3-hydroxytetrahydropyran-4-yl]-4-[[6-(1-methylpyrazol-4-yl)-3-pyridyl]methyl]naphthalene-2-carboxamide]
pEC50 (hM1): 7.19 | pEC50 (rat M1): 7.01

Cn1cc(-c2ccc(Cc3cc(C(=O)N[C@H]4CCOC[C@@H]4O)c(F)c4ccccc34)cn2)cn1 [Example 20, 1-fluoro-N-[(3R,4S)-3-hydroxytetrahydropyran-4-yl]-4-[[6-(1-methylpyrazol-4-yl)-3-pyridyl]methyl]naphthalene-2-carboxamide]
pEC50 (hM1): 8.70 | pEC50 (rat M1): 8.70

Cn1cc(-c2ccc(Cc3cc(C(=O)N[C@H]4COCC[C@@H]4O)c(F)c4ccccc34)cn2)cn1 [Example 21, 1-fluoro-N-((3S,4S)-4-hydroxytetrahydro-2H-pyran-3-yl)-4-((6-(1-methyl-1H-pyrazol-4-yl)pyridin-3-yl)methyl)-2-naphthamide]
pEC50 (hM1): 7.48 | pEC50 (rat M1): 7.32

O=C(N[C@H]1CCCC[C@@H]1O)c1cc(Cc2ccc(C3CC3)nc2)c2ccccc2c1F [Example 24, 4-((6-Cyclopropylpyridin-3-yl)methyl)-1-fluoro-N-((1S,2S)-2-hydroxycyclohexyl)-2-naphthamide]
pEC50 (hM1): 6.64 | pEC50 (rat M1): 6.46

N#CC1(c2ccccn2)CCN(Cc2cc(C(=O)N[C@H]3CCCC[C@@H]3O)c(F)c3ccccc23)CC1 [Example 26, 4-((4-Cyano-4-(pyridin-2-yl)piperidin-1-yl)methyl)-1-fluoro-N-((1S,2S)-2-hydroxycyclohexyl)-2-naphthamide]
pEC50 (hM1): 6.59 | pEC50 (rat M1): 6.46
